From patent publication US7718808B2, “Thiazole derivatives” (Kyowa Hakko Kirin Co., Ltd., priority 2003, dated 2010)

Compound | melting point
O=C(Nc1nc(-c2ccco2)c(-c2ccncc2)s1)c1ccc(F)cc1 [Compound 102, 4-Fluoro-N-[4-(2-furyl)-5-(4-pyridyl)thiazol-2-yl]benzamide] | 270 to 300 °C (dec.)
COc1ccc(C(=O)Nc2nc(-c3ccco3)c(-c3ccncc3)s2)cc1 [Compound 103, N-[4-(2-Furyl)-5-(4-pyridyl)thiazol-2-yl]-4-methoxybenzamide] | 235 to 245 °C
CC(C)(C)C(=O)Nc1nc(-c2ccco2)c(-c2ccncc2)s1 [Compound 104, N-[4-(2-Furyl)-5-(4-pyridyl)thiazol-2-yl]-2,2-dimethylpropanamide] | 240 to 241 °C
COc1cc(C(=O)Nc2nc(-c3ccco3)c(-c3ccncc3)s2)ccn1 [Compound 105, N-[4-(2-Furyl)-5-(4-pyridyl)thiazol-2-yl]-2-methoxypyridine-4-carboxamide] | 285 to 288 °C
O=C(Nc1nc(-c2ccco2)c(-c2ccncc2)s1)c1ccnc(Cn2ccnc2)c1 [Compound 108, N-[4-(2-Furyl)-5-(4-pyridyl)thiazol-2-yl]-2-(imidazol-1-ylmethyl)pyridine-4-carboxamide] | 239 to 250 °C
CN(C)CCN(C)Cc1cc(C(=O)Nc2nc(-c3ccco3)c(-c3ccncc3)s2)ccn1 [Compound 109, 2-{N-[2-(Dimethylamino)ethyl]-N-methylaminomethyl}-N-[4-(2-furyl)-5-(4-pyridyl)thiazol-2-yl]pyridine-4-carboxamide] | 203 to 205 °C
COCCN(C)Cc1cc(C(=O)Nc2nc(-c3ccco3)c(-c3ccncc3)s2)ccn1 [Compound 110, N-[4-(2-Furyl)-5-(4-pyridyl)thiazol-2-yl]-2-[N-(2-methoxyethyl)-N-methylaminomethyl]pyridine-4-carboxamide] | 195 to 197 °C
O=C(Nc1nc(-c2ccco2)c(-c2ccncc2)s1)c1ccnc(CN2CCC(O)CC2)c1 [Compound 111, N-[4-(2-Furyl)-5-(4-pyridyl)thiazol-2-yl]-2-(4-hydroxypiperidinomethyl)pyridine-4-carboxamide] | 203 to 208 °C
O=C(Nc1nc(-c2ccco2)c(-c2ccncc2)s1)c1cc[nH]c(=O)c1 [Compound 112, N-[4-(2-Furyl)-5-(4-pyridyl)thiazol-2-yl]-2-oxo-1,2-dihydropyridine-4-carboxamide] | 277 to 281 °C
O=C(Nc1nc(-c2ccco2)c(-c2ccncc2)s1)c1ccn(Cc2ccccc2)c(=O)c1 [Compound 113, 1-Benzyl-N-[4-(2-furyl)-5-(4-pyridyl)thiazol-2-yl]-2-oxo-1,2-dihydropyridine-4-carboxamide] | 244 to 248 °C
COc1ccc(-c2sc(NC(=O)c3ccccc3)nc2-c2ccco2)cc1 [Compound 119, N-[4-(2-Furyl)-5-(4-methoxyphenyl)thiazol-2-yl]benzamide] | 90 to 98 °C
Cn1ccc(-c2sc(NC(=O)c3ccncc3)nc2-c2ccco2)cc1=O [Compound 123, N-[4-(2-Furyl)-5-(1-methyl-2-oxo-1,2-dihydropyridine-4-yl)thiazol-2-yl]pyridine-4-carboxamide] | 280 to 282 °C
CCn1ccc(-c2sc(NC(=O)c3ccncc3)nc2-c2ccco2)cc1=O [Compound 124, N-[5-(1-Ethyl-2-oxo-1,2-dihydropyridin-4-yl)-4-(2-furyl)thiazol-2-yl]pyridine-4-carboxamide] | 245 to 248 °C
O=C(Nc1nc(-c2ccco2)c(-c2ccn(Cc3ccccc3)c(=O)c2)s1)c1ccncc1 [Compound 125, N-[5-(1-Benzyl-2-oxo-1,2-dihydropyridin-4-yl)-4-(2-furyl)thiazol-2-yl]pyridine-4-carboxamide] | 137 to 140 °C
Cn1cc(-c2sc(NC(=O)c3ccncc3)nc2-c2ccco2)ccc1=O [Compound 126, N-[4-(2-Furyl)-5-(1-methyl-2-oxo-1,2-dihydropyridin-5-yl)thiazol-2-yl]pyridine-4-carboxamide] | 294 to 295 °C
CCn1cc(-c2sc(NC(=O)c3ccncc3)nc2-c2ccco2)ccc1=O [Compound 127, N-[5-(1-Ethyl-2-oxo-1,2-dihydropyridin-5-yl)-4-(2-furyl)thiazol-2-yl]pyridine-4-carboxamide] | 285 to 289 °C
O=C(Nc1nc(-c2ccco2)c(-c2ccc(=O)n(Cc3ccccc3)c2)s1)c1ccncc1 [Compound 128, N-[5-(1-Benzyl-2-oxo-1,2-dihydropyridin-5-yl)-4-(2-furyl)thiazol-2-yl]pyridine-4-carboxamide] | 215 to 218 °C
CCn1c(-c2sc(NC(=O)c3ccncc3)nc2-c2ccco2)cccc1=O [Compound 129, N-[5-(1-Ethyl-6-oxo-1,6-dihydropyridin-2-yl)-4-(2-furyl)thiazol-2-yl]pyridine-4-carboxamide] | > 300 °C
CCn1nc(-c2sc(NC(=O)c3ccncc3)nc2-c2ccco2)ccc1=O [Compound 130, N-[5-(1-Ethyl-6-oxo-1,6-dihydropyridazin-3-yl)-4-(2-furyl)thiazol-2-yl]pyridine-4-carboxamide] | 235 to 239 °C
CN(C)Cc1cc(C(=O)Nc2nc(-c3ccco3)c(C(=O)c3ccccc3)s2)ccn1 [Compound 141, N-[5-Benzoyl-4-(2-furyl)thiazol-2-yl]-2-(dimethylaminomethyl)pyridine-4-carboxamide] | 205 to 209 °C
COCCN(C)c1cc(C(=O)Nc2nc(-c3ccco3)c(C(=O)c3ccccc3)s2)ccn1 [Compound 145, N-[5-Benzoyl-4-(2-furyl)thiazol-2-yl]-2-[N-(2-methoxyethyl)-N-methylamino]pyridine-4-carboxamide] | 145 to 147 °C
Cn1cc(C(=O)Nc2nc(-c3ccco3)c(C(=O)c3ccccc3)s2)ccc1=O [Compound 150, N-[5-Benzoyl-4-(2-furyl)thiazol-2-yl]-1-methyl-2-oxo-1,2-dihydropyridine-5-carboxamide] | 220 to 225 °C
O=C(Nc1nc(-c2ccco2)c(C(=O)c2ccccc2)s1)c1ccc(=O)n(Cc2ccncc2)c1 [Compound 152, N-[5-Benzoyl-4-(2-furyl)thiazol-2-yl]-2-oxo-1-(pyridin-4-ylmethyl)-1,2-dihydropyridine-5-carboxamide] | 270 to 275 °C

Other lines, results leading:

melting point | Compound
220 to 232 °C (dec.) | COC1CCN(CC(=O)Nc2nc(-c3ccco3)c(C(=O)c3ccccn3)s2)CC1.Cl
180 to 185 °C | CCN(CC)C(=O)C1CCCN(CC(=O)Nc2nc(-c3ccco3)c(C(=O)c3ccccn3)s2)C1.Cl (centres unmarked)
170 to 188 °C | CN1CCN(CC(=O)Nc2nc(-c3ccco3)c(C(=O)c3ccccn3)s2)CC1=O.Cl
153 to 154 °C | CC(C)(O)C(=O)Nc1nc(-c2ccco2)c(C(=O)c2ccccc2)s1 [Compound 137, N-[5-Benzoyl-4-(2-furyl)thiazol-2-yl]-2-hydroxy-2-methylpropanamide]
202 to 205 °C | O=C(c1ccccc1)c1sc(NC(=O)C2(O)CC2)nc1-c1ccco1 [Compound 138, N-[5-Benzoyl-4-(2-furyl)thiazol-2-yl]-1-hydroxycyclopropanecarboxamide]
212 to 213 °C | O=C(Nc1nc(-c2ccco2)c(C(=O)c2ccccc2)s1)c1ccnc(CN2CCOCC2)c1 [Compound 144, N-[5-Benzoyl-4-(2-furyl)thiazol-2-yl]-2-(morpholinomethyl)pyridine-4-carboxamide]
195 to 198 °C | O=C(Nc1nc(-c2ccco2)c(C(=O)c2ccccc2)s1)c1ccnc(N2CCCCC2)c1 [Compound 146, N-[5-Benzoyl-4-(2-furyl)thiazol-2-yl]-2-piperidinopyridine-4-carboxamide]
225 to 248 °C | O=C(Nc1nc(-c2ccco2)c(C(=O)c2ccccc2)s1)c1ccnnc1 [Compound 153, N-[5-Benzoyl-4-(2-furyl)thiazol-2-yl]pyridazine-4-carboxamide]
216 to 217 °C | CC(=O)Nc1nc(-c2ccco2)c(C(=O)c2ccccn2)s1 [Compound 188, N-[4-(2-Furyl)-5-(pyridin-2-ylcarbonyl)thiazol-2-yl]acetamide]
148 to 149 °C | CCCC(=O)Nc1nc(-c2ccco2)c(C(=O)c2ccccn2)s1 [Compound 189, N-[4-(2-Furyl)-5-(pyridin-2-ylcarbonyl)thiazol-2-yl]butanamide]
186 to 187 °C | CC(C)(C)C(=O)Nc1nc(-c2ccco2)c(C(=O)c2ccccn2)s1 [Compound 190, N-[4-(2-Furyl)-5-(pyridin-2-ylcarbonyl)thiazol-2-yl]-2,2-dimethylpropanamide]
195 to 196 °C | CC1(C(=O)Nc2nc(-c3ccco3)c(C(=O)c3ccccn3)s2)CC1 [Compound 192, N-[4-(2-Furyl)-5-(pyridin-2-ylcarbonyl)thiazol-2-yl]-1-methylcyclopropanecarboxamide]
165 to 170 °C | O=C(c1ccccn1)c1sc(NC(=O)C2CCC2)nc1-c1ccco1 [Compound 193, N-[4-(2-Furyl)-5-(pyridin-2-ylcarbonyl)thiazol-2-yl]cyclobutanecarboxamide]
234 to 235 °C | O=C(c1ccccn1)c1sc(NC(=O)C2CCOCC2)nc1-c1ccco1 [Compound 194, N-[4-(2-Furyl)-5-(pyridin-2-ylcarbonyl)thiazol-2-yl]tetrahydropyran-4-carboxamide]
208 to 209 °C | O=C(c1ccccn1)c1sc(NC(=O)C2CCN(Cc3cccnc3)CC2)nc1-c1ccco1 [Compound 197, N-[4-(2-Furyl)-5-(pyridin-2-ylcarbonyl)thiazol-2-yl]-1-(pyridin-3-ylmethyl)piperidine-4-carboxamide]
240 to 241 °C | O=C(c1ccccn1)c1sc(NC(=O)C2CCN(Cc3ccncc3)CC2)nc1-c1ccco1 [Compound 198, N-[4-(2-Furyl)-5-(pyridin-2-ylcarbonyl)thiazol-2-yl]-1-(pyridin-4-ylmethyl)piperidine-4-carboxamide]
165 to 171 °C | O=C(Nc1nc(-c2ccco2)c(C(=O)c2ccccn2)s1)c1ccccc1 [Compound 199, N-[4-(2-Furyl)-5-(pyridin-2-ylcarbonyl)thiazol-2-yl]benzamide]
205 to 208 °C | COc1ccccc1C(=O)Nc1nc(-c2ccco2)c(C(=O)c2ccccn2)s1 [Compound 200, N-[4-(2-Furyl)-5-(pyridin-2-ylcarbonyl)thiazol-2-yl]-2-methoxybenzamide]
